Source: PubChem BioAssay AID1259407 (Chemical Carcinogenesis Research Information System (CCRIS), 2018)
The source made the active and inactive calls. How the calls were made is not given here.

Test system: CCRIS mutagenicity, Ames/micronucleus/aberration tests
Assay: CCRIS mutagenicity studies
[1] = Test System: AMES SALMONELLA TYPHIMURIUM, Strain/Indicator: TA97, Metabolic Activation: HAMSTER, LIVER, S-9, AROCLOR 1254 (10%), Method: PREINCUBATION
[2] = Test System: AMES SALMONELLA TYPHIMURIUM, Strain/Indicator: TA97, Metabolic Activation: NONE, Method: PREINCUBATION
[3] = Test System: AMES SALMONELLA TYPHIMURIUM, Strain/Indicator: TA97, Metabolic Activation: RAT, LIVER, S-9, AROCLOR 1254 (10%), Method: PREINCUBATION
[4] = Test System: AMES SALMONELLA TYPHIMURIUM, Strain/Indicator: TA98, Metabolic Activation: HAMSTER, LIVER, S-9, AROCLOR 1254 (10%), Method: PREINCUBATION
[5] = Test System: AMES SALMONELLA TYPHIMURIUM, Strain/Indicator: TA98, Metabolic Activation: NONE, Method: PREINCUBATION
[6] = Test System: AMES SALMONELLA TYPHIMURIUM, Strain/Indicator: TA100, Metabolic Activation: HAMSTER, LIVER, S-9, AROCLOR 1254 (10%), Method: PREINCUBATION
[7] = Test System: AMES SALMONELLA TYPHIMURIUM, Strain/Indicator: TA100, Metabolic Activation: NONE, Method: PREINCUBATION
[8] = Test System: AMES SALMONELLA TYPHIMURIUM, Strain/Indicator: TA1535, Metabolic Activation: HAMSTER, LIVER, S-9, AROCLOR 1254 (10%), Method: PREINCUBATION
[9] = Test System: AMES SALMONELLA TYPHIMURIUM, Strain/Indicator: TA1535, Metabolic Activation: NONE, Method: PREINCUBATION

Q: With `CNc1ccccc1` as the compound, how does the mutagenic call [1] read?
A: inactive; negative

Q: What about the mutagenic call (Test System: AMES SALMONELLA TYPHIMURIUM, Strain/Indicator: TA97, Metabolic Activation: HAMSTER, LIVER, S-9, AROCLOR 1254 (30%), Method: PREINCUBATION) of the same compound?
A: inactive; negative

Q: What about the mutagenic call [2] of the same compound?
A: inactive; negative

Q: And the mutagenic call [3]?
A: inactive; negative

Q: And the mutagenic call (Test System: AMES SALMONELLA TYPHIMURIUM, Strain/Indicator: TA97, Metabolic Activation: RAT, LIVER, S-9, AROCLOR 1254 (30%), Method: PREINCUBATION)?
A: inactive; negative

Q: What about the mutagenic call [4] of the same compound?
A: inactive; negative

Q: And the mutagenic call (Test System: AMES SALMONELLA TYPHIMURIUM, Strain/Indicator: TA98, Metabolic Activation: HAMSTER, LIVER, S-9, AROCLOR 1254 (30%), Method: PREINCUBATION)?
A: inactive; negative

Q: And the mutagenic call (Test System: AMES SALMONELLA TYPHIMURIUM, Strain/Indicator: TA98, Metabolic Activation: HAMSTER, LIVER, S-9, SODIUM PHENOBARBITAL AND 5,6-BENZOFLAVONE, Method: PREINCUBATION)?
A: inactive; negative

Q: And the mutagenic call [5]?
A: inactive; negative

Q: What about the mutagenic call (Test System: AMES SALMONELLA TYPHIMURIUM, Strain/Indicator: TA98, Metabolic Activation: RAT, LIVER, S-9, AROCLOR 1254 (10 OR 30%), Method: PREINCUBATION) of the same compound?
A: inactive; negative

Q: And the mutagenic call [6]?
A: inactive; negative

Q: And the mutagenic call (Test System: AMES SALMONELLA TYPHIMURIUM, Strain/Indicator: TA100, Metabolic Activation: HAMSTER, LIVER, S-9, AROCLOR 1254 (30%), Method: PREINCUBATION)?
A: inactive; negative

Q: What about the mutagenic call (Test System: AMES SALMONELLA TYPHIMURIUM, Strain/Indicator: TA100, Metabolic Activation: HAMSTER, LIVER, S-9, SODIUM PHENOBARBITAL AND 5,6-BENZOFLAVONE, Method: PREINCUBATION) of the same compound?
A: inactive; negative

Q: What about the mutagenic call [7] of the same compound?
A: inactive; negative

Q: And the mutagenic call (Test System: AMES SALMONELLA TYPHIMURIUM, Strain/Indicator: TA100, Metabolic Activation: RAT, LIVER, S-9, AROCLOR 1254 (10 OR 30%), Method: PREINCUBATION)?
A: inactive; negative

Q: What about the mutagenic call (Test System: AMES SALMONELLA TYPHIMURIUM, Strain/Indicator: TA102, Metabolic Activation: HAMSTER, LIVER, S-9, SODIUM PHENOBARBITAL AND 5,6-BENZOFLAVONE, Method: PREINCUBATION) of the same compound?
A: inactive; negative

Q: And the mutagenic call (Test System: AMES SALMONELLA TYPHIMURIUM, Strain/Indicator: TA102, Metabolic Activation: NONE, Method: PREINCUBATION)?
A: inactive; negative

Q: What about the mutagenic call (Test System: AMES SALMONELLA TYPHIMURIUM, Strain/Indicator: TA104, Metabolic Activation: HAMSTER, LIVER, S-9, SODIUM PHENOBARBITAL AND 5,6-BENZOFLAVONE, Method: PREINCUBATION) of the same compound?
A: inactive; negative

Q: What about the mutagenic call (Test System: AMES SALMONELLA TYPHIMURIUM, Strain/Indicator: TA104, Metabolic Activation: NONE, Method: PREINCUBATION) of the same compound?
A: inactive; negative

Q: What about the mutagenic call [8] of the same compound?
A: inactive; negative

Q: What about the mutagenic call (Test System: AMES SALMONELLA TYPHIMURIUM, Strain/Indicator: TA1535, Metabolic Activation: HAMSTER, LIVER, S-9, AROCLOR 1254 (30%), Method: PREINCUBATION) of the same compound?
A: inactive; negative

Q: And the mutagenic call (Test System: AMES SALMONELLA TYPHIMURIUM, Strain/Indicator: TA1535, Metabolic Activation: HAMSTER, LIVER, S-9, SODIUM PHENOBARBITAL AND 5,6-BENZOFLAVONE, Method: PREINCUBATION)?
A: inactive; negative

Q: And the mutagenic call [9]?
A: inactive; negative

Q: And the mutagenic call (Test System: AMES SALMONELLA TYPHIMURIUM, Strain/Indicator: TA1535, Metabolic Activation: RAT, LIVER, S-9, AROCLOR 1254 (10 OR 30%), Method: PREINCUBATION)?
A: inactive; negative

Q: What about the mutagenic call (Test System: AMES SALMONELLA TYPHIMURIUM, Strain/Indicator: TA1537, Metabolic Activation: HAMSTER, LIVER, S-9, SODIUM PHENOBARBITAL AND 5,6-BENZOFLAVONE, Method: PREINCUBATION) of the same compound?
A: inactive; negative

Q: What about the mutagenic call (Test System: AMES SALMONELLA TYPHIMURIUM, Strain/Indicator: TA1537, Metabolic Activation: NONE, Method: PREINCUBATION) of the same compound?
A: inactive; negative

Q: And the mutagenic call (Test System: E. COLI, Strain/Indicator: WP2UVRA/PKM101, Metabolic Activation: HAMSTER, LIVER, S-9, SODIUM PHENOBARBITAL AND 5,6-BENZOFLAVONE, Method: PREINCUBATION)?
A: inactive; negative

Q: What about the mutagenic call (Test System: E. COLI, Strain/Indicator: WP2UVRA/PKM101, Metabolic Activation: NONE, Method: PREINCUBATION) of the same compound?
A: inactive; negative

Q: What about the mutagenic call (Test System: E. COLI, Strain/Indicator: WP2UVRA, Metabolic Activation: HAMSTER, LIVER, S-9, SODIUM PHENOBARBITAL AND 5,6-BENZOFLAVONE, Method: PREINCUBATION) of the same compound?
A: inactive; negative

Q: What about the mutagenic call (Test System: E. COLI, Strain/Indicator: WP2UVRA, Metabolic Activation: NONE, Method: PREINCUBATION) of the same compound?
A: inactive; negative

Q: What about the mutagenic call (Test System: UDS RODENT HEPATOCYTES, Strain/Indicator: THY INCORP (NON-S-PHASE), Metabolic Activation: NONE, Method: AUTORADIOGRAPHY) of the same compound?
A: inactive; negative

Q: How did the mutagenic call [1] turn out when `Cc1cccc(N)c1C` was run?
A: inactive; negative

Q: What about the mutagenic call [2] of the same compound?
A: inactive; negative

Q: What about the mutagenic call [3] of the same compound?
A: inactive; negative

Q: And the mutagenic call [4]?
A: active; positive

Q: And the mutagenic call [5]?
A: inactive; negative

Q: What about the mutagenic call (Test System: AMES SALMONELLA TYPHIMURIUM, Strain/Indicator: TA98, Metabolic Activation: RAT, LIVER, S-9, AROCLOR 1254 (10%), Method: PREINCUBATION) of the same compound?
A: inactive; negative

Q: What about the mutagenic call [6] of the same compound?
A: active; positive

Q: What about the mutagenic call [7] of the same compound?
A: inactive; negative

Q: What about the mutagenic call (Test System: AMES SALMONELLA TYPHIMURIUM, Strain/Indicator: TA100, Metabolic Activation: RAT, LIVER, S-9, AROCLOR 1254 (10%), Method: PREINCUBATION) of the same compound?
A: inactive; negative

Q: And the mutagenic call [8]?
A: inactive; negative

Q: What about the mutagenic call [9] of the same compound?
A: inactive; negative

Q: And the mutagenic call (Test System: AMES SALMONELLA TYPHIMURIUM, Strain/Indicator: TA1535, Metabolic Activation: RAT, LIVER, S-9, AROCLOR 1254 (10%), Method: PREINCUBATION)?
A: inactive; negative

Q: With `Nc1nc(=O)n([C@@H]2O[C@H](CO)[C@@H](O)[C@H]2O)cc1O` as the compound, how does the mutagenic call [7] read?
A: inactive; negative

Q: How did the mutagenic call [7] turn out when `CC/C=C/C=O` was run?
A: inactive; negative

Q: What about the mutagenic call (Test System: AMES SALMONELLA TYPHIMURIUM, Strain/Indicator: TA100, Metabolic Activation: NONE, Method: PREINCUBATION (THREEFOLD CELL DENSITY)) of the same compound?
A: active; positive

Q: What about the mutagenic call (Test System: AMES SALMONELLA TYPHIMURIUM, Strain/Indicator: TA100, Metabolic Activation: RAT, LIVER, S-9, AROCLOR 1254, Method: PREINCUBATION) of the same compound?
A: active; positive

Q: What about the mutagenic call (Test System: AMES SALMONELLA TYPHIMURIUM, Strain/Indicator: TA100, Metabolic Activation: RAT, LIVER, S-9, AROCLOR 1254, Method: PREINCUBATION (THREEFOLD CELL DENSITY)) of the same compound?
A: active; positive

Q: And the mutagenic call (Test System: CHINESE HAMSTER V-79, Strain/Indicator: V-79/6-THIOGUANINE, Metabolic Activation: NONE, Method: STANDARD PLATE)?
A: active; positive

Q: And the mutagenic call (Test System: CHINESE HAMSTER V-79, Strain/Indicator: V-79/OUABAIN, Metabolic Activation: NONE, Method: STANDARD PLATE)?
A: inactive; negative

Q: Which mutagenic call (Test System: AMES SALMONELLA TYPHIMURIUM, Strain/Indicator: TA98, Metabolic Activation: NONE, Method: STANDARD PLATE) does the source give for `Cc1cccc(N=Nc2c(O)ccc3ccccc23)c1C` here?
A: inactive; negative

Q: What about the mutagenic call (Test System: AMES SALMONELLA TYPHIMURIUM, Strain/Indicator: TA98, Metabolic Activation: RAT, LIVER, S-9, Method: STANDARD PLATE) of the same compound?
A: inactive; negative

Q: What about the mutagenic call (Test System: AMES SALMONELLA TYPHIMURIUM, Strain/Indicator: TA100, Metabolic Activation: NONE, Method: STANDARD PLATE) of the same compound?
A: inactive; negative

Q: What about the mutagenic call (Test System: AMES SALMONELLA TYPHIMURIUM, Strain/Indicator: TA100, Metabolic Activation: RAT, LIVER, S-9, Method: STANDARD PLATE) of the same compound?
A: inactive; negative
